In experiment [1] the test system is HCV CORE. In words: Western blotting against HCV CORE in JFH-1 infected Huh 7.5.1 cells. It counts as cell-based, Hepatitis C virus (JFH-1). As for the experimental part:
The experiment was carried out as follow. First, 200,000 Huh 7.5.1 cells were placed in a 60×15 mm cell culture dish. Next day, Japanese Fulminant Hepatitis-1 virus (JFH-1) stock vial which was stored in −70° C. refrigerator was taken out and thawed out in a container filled with ice-water. The culture medium was collected from the cultured 60×15 mm cell culture dish, washed with 1×PBS and collected, again. 1.5 ml of JFH-1 virus solution per 60×15 mm cell culture dish each was added. The dish was shaken to cover the surface sufficiently. The dish was laid in a 5% CO2 incubator at 37° C. for 6 hours and after that, the supernatant was draw out. 1×PBS was spread on the cell surface as slow as possible and after one time washing, cells were collected. 5 ml of cell culture media was added to control and JFH-1 treatments groups. At the last step of virus-infection, 5 ml CM and each […] of ginsenosides which was set to 50 mM concentration were added to the cell culture media. After that, the cell culture media was laid in a 5% CO2 incubator at 37° C. After 72 hours, the following steps were carried out.
As described in the above Example 3, the Huh 7.5.1 cells were treated with each 100 μM of seven ginsenosides (Ro, Re, Rg1, Rg2, Rg3, Rh1, Rh2). After 72 hours, a western blotting analysis was carried out for analyzing virus suppression effect against HCV CORE and cleaved PARP.
Specific western blotting analysis carried out was as follow. First, the above described samples were prepared, mixed with a sample buffer in tubes and heated at 100° C. for 10 minutes. The tubes were cooled on ice and centrifuged. The electrophoresis was carried out with the above samples and molecular weight markers, and then they were transferred to a PVDF membrane (hydrophobic). After blocking with 5% skin milk for an hour, each primary antibody was added. After staying overnight at 4° C., washings three times for every 10 minutes were conducted, and the blocking was carried out with 5% skin milk for an hour at the room temperature. After that, each secondary antibody was added, and the reaction for an hour and washing three times for every 10 minutes were conducted. Then, the membrane was stained by 1:1 mix with detection reagents A (Luminol Enhancer solution) and B (Peroxide solution) and developed with X ray film.
To examine the dose-dependent anti-virus effect of ginsenoside Rg3, western blotting analysis against cleaved PARP and HCV CORE were carried out with the samples of ginsenosides Rg3 treatment concentration at 10 μM, 25 μM, 50 μM and 100 μM each.
To examine the dose-dependent anti-virus effect of ginsenoside Rh2, western blotting analysis against cleaved PARP and HCV CORE were carried out with the samples of ginsenosides Rh2 treatment concentration at 10 μM, 25 μM and 50 μM each. […]
Background: In western blotting, separated proteins are transferred to a membrane and probed.

The test system of experiment [2] is phospho-NFκB. In words: Western blotting onto NFκB and phospho-NFκB in JFH-1 infected Huh 7.5.1 cells. In kind it is cell-based. The following applies: 100 μM, 72 hours. The source says: Conducted western blotting onto NFκB and phospho-NFκB which are transcription factors of virus suppression mechanism of ginsenosides to a hepatoma cell line.
Specifically, it is known that when cells are infected with hepatitis C viruses, TNF-α in the cells increases and, apoptosis actions in the cells increases due to an anti-apoptotic factor, NFkB decreases. Additionally, identification of phosphor-NFκB among NFκB (total) is important to know activation level of NFκB.
Herein, western blotting analysis onto NFκB and phospho-NFκB, transcription factors, was carried out to identify the TNF-α mediated apoptotic signaling pathway. The TNF-α is induced by Hepatitis C. The analysis was conducted 72 hours after the samples of Huh 7.5.1 cells treated with each 100 μM of seven ginsenosides (Ro, Re, Rg1, Rg2, Rg3, Rh1, Rh2) as above stated in Example 3.
Specifically, the western blotting analysis was carried out as follow. First, the above described samples were prepared, mixed with a sample buffer in tubes and heated at 100° C. for 10 minutes. The tubes were cooled on ice and centrifuged. The electrophoresis was carried out with the prepared samples and molecular weight markers were put in. And then, they were transferred to a PVDF membrane (hydrophobic). After blocking with 5% skin milk for an hour, primary antibodies of NFκB and phospho-NFκB were added. […]

Structures are written as SMILES.

Turning to `CC(C)=CCC[C@](C)(O)[C@H]1CC[C@]2(C)[C@@H]1[C@H](O)C[C@@H]1[C@@]3(C)CC[C@H](O[C@@H]4O[C@H](CO)[C@@H](O)[C@H](O)[C@H]4O[C@@H]4O[C@H](CO)[C@@H](O)[C@H](O)[C@H]4O)C(C)(C)[C@@H]3CC[C@]12C` [ginsenoside Rg3], the “virus suppression effect (HCV CORE), dose dependence” value in experiment [1] (10 μM, 25 μM, 50 μM and 100 μM) is given as “dose-dependent manner”. Further, the “HCV CORE” value in experiment [1] (100 μM, 72 hours) is given as “remarkably decreased”. Moreover, the “anti-virus effect compared with interferon” value in experiment [1] (comparison with PegIFN alpha-2b) was “same anti-virus effect as the interferon therapeutics”. Besides, the apoptosis of cells result in experiment [2] is listed as “remarkably decreased”.

The values above are taken from patent US8865659B2, “Compositions for prevention or treatment of Hepatitis C virus containing ginsenoside Rg3 as an active ingredient” (priority 2012, dated 2014).
